Experiment [1] deals with T1, Alpha-glucosidase (Saccharomyces cerevisiae S288c, UniProt P53341+P38158+P07265). Kind of experiment: Inhibition of Saccharomyces cerevisiae alpha-glucosidase using pNPG as substrate preincubated for 10 mins followed by substrate addition and measured after 20 mins by spectrophotometric analysis. The format is protein assay.
For experiment [2], the target named is T1, Alpha-glucosidase. Kind of experiment: Competitive inhibition of Saccharomyces cerevisiae alpha-glucosidase using pNPG as substrate assessed as inhibition constant preincubated for 10 mins followed by substrate addition and measured after 20 mins by spectrophotometric analysis. The experiment is classed as protein assay.
In experiment [3] the target is T1, Alpha-glucosidase. Put plainly: Inhibition of Saccharomyces cerevisiae alpha-glucosidase. The format is protein assay.
In experiment [4] the target is Alpha-glucosidase (Saccharomyces cerevisiae S288c) (UniProt P53341+P38158+P07265). Put plainly: Potency index, ratio of acarbose IC50 to test compound IC50 for inhibition of Saccharomyces cerevisiae alpha-glucosidase. The experiment is classed as protein assay.
The nature of experiment [5]: Inhibition of alpha-glucosidase (unknown origin) using p-nitrophenylglucopyranoside as substrate preincubated for 10 mins followed by substrate addition and measured after 30 mins by absorbance based microplate reader analysis. More on the design: species or system Homo sapiens.
For experiment [6], the target named is T1, Alpha-glucosidase. Put plainly: Inhibition of Saccharomyces cerevisiae alpha-glucosidase using p-nitrophenyl-alpha-D-glucopyranoside as substrate preincubated for 10 mins followed by substrate addition and measured after 30 mins by absorbance based analysis. The experiment is classed as protein assay.
For experiment [7], the target named is T1, Alpha-glucosidase. Put plainly: Inhibition of Saccharomyces cerevisiae alpha-glucosidase using p-nitrophenyl-alpha-D-glucopyranoside as substrate incubated for 30 mins by spectrophotometric analysis. The format is protein assay.
Experiment [8] in a line: Inhibition of Saccharomyces cerevisiae alpha-glucosidase type I using p-nitrophenyl-alpha-D-glucopyranoside as substrate preincubated for 10 mins followed by substrate addition and measured after 20 mins by spectrophotometric analysis.
The nature of experiment [9]: Inhibition of alpha-glucosidase (unknown origin) using p-nitro phenyl glucopyranoside as substrate preincubated for 15 mins followed by substrate addition and measured after 30 mins by absorbance based analysis. More on the design: species or system Homo sapiens.
Experiment [10] is filed under the species Homo sapiens. Kind of experiment: Inhibition of alpha-glucosidase (unknown origin) using p-nitrophenylglucopyranoside as substrate at 100 microg/ml preincubated for 10 mins followed by substrate addition and measured by absorbance based analysis relative to control. The settings on record: dose 100.0 µg/ml.
The nature of experiment [11]: Inhibition of alpha-glucosidase (unknown origin) using p-nitrophenylglucopyranoside as substrate preincubated for 10 mins followed by substrate addition and measured by absorbance based analysis. Also noted: species or system Homo sapiens.
Experiment [12] deals with T1, Alpha-glucosidase. Kind of experiment: Competitive inhibition of Saccharomyces cerevisiae alpha-glucosidase assessed as inhibition constant. The experiment is classed as protein assay.
Experiment [13] in a line: Inhibition of alpha-glucosidase (unknown origin) using p-nitrophenyl-alpha-D-glucopyranoside as substrate. More on the design: species or system Homo sapiens.
Experiment [14] can be described thus: Competitive inhibition of alpha-glucosidase (unknown origin) using p-nitrophenyl-alpha-D-glucopyranoside as substrate assessed as inhibition constant. More on the design: species or system Homo sapiens.
The target of experiment [15] is T1, Alpha-glucosidase. Put plainly: Inhibition of Saccharomyces cerevisiae alpha-glucosidase using p-nitrophenyl-alpha-D-glucopyranoside as substrate preincubated for 5 mins followed by substrate addition and measured after 5 mins by absorbance based analysis. The format is protein assay.
In experiment [16] the target is T1, Alpha-glucosidase. Put plainly: Inhibition of Saccharomyces cerevisiae alpha-glucosidase using pNPG as substrate by spectrophotometric analysis. The format is protein assay.
Experiment [17] addresses T1, Alpha-glucosidase. Put plainly: Inhibition of Saccharomyces cerevisiae alpha-glucosidase using p-nitrophenyl glucopyranoside as substrate preincubated for 10 mins followed by substrate addition and measured after 20 mins by spectrophotometric analysis. The format is protein assay.
The nature of experiment [18]: Inhibition of alpha-glucosidase (unknown origin) assessed as reduction in starch digestion preincubated with alpha-amylase for 20 mins followed by alpha-glucosidase addition and measured after 30 mins by absorbance based analysis. Also noted: species or system Homo sapiens.
The nature of experiment [19]: Inhibition of alpha-glucosidase (unknown origin) using p-nitrophenyl glucopyranoside as substrate preincubated for 10 mins followed by substrate addition and measured after 20 mins by spectrophotometric analysis. More on the design: species or system Homo sapiens.
The nature of experiment [20]: Inhibition of alpha-glucosidase (unknown origin) using p-nitrophenyl-alpha-D-glucopyranoside as substrate preincubated for 15 mins followed by substrate addition and measured after 30 mins by spectrophotometric analysis. Also noted: species or system Homo sapiens.
Experiment [21] can be described thus: Inhibition of alpha-glucosidase (unknown origin) using pNPG as substrate by spectrophotometric analysis. Also noted: species or system Homo sapiens.
Experiment [22] is described as follows: Inhibition of alpha-glucosidase (unknown origin) using pNPG as substrate assessed as inhibition constant by spectrophotometric analysis. Also noted: species or system Homo sapiens.
Experiment [23] is described as follows: Inhibition of alpha-glucosidase (unknown origin) using p-nitrophenyl-alpha-D-glucopyranoside as substrate preincubated for 10 mins followed by substrate addition and measured after 20 mins by spectrophotometric analysis. Also noted: species or system Homo sapiens.
The target of experiment [24] is T1, Alpha-glucosidase. Kind of experiment: Inhibition of Saccharomyces cerevisiae alpha-glucosidase using p-nitrophenyl-alpha-D-glucopyranoside as substrate preincubated for 10 mins followed by substrate addition and measured after 30 mins by absorbance based microplate reader analysis. The experiment is classed as protein assay.
For experiment [25], the target named is T1, Alpha-glucosidase. Kind of experiment: Inhibition of Saccharomyces cerevisiae alpha-glucosidase using p-nitrophenyl-alpha-D-glucopyranoside as substrate preincubated for 15 mins followed by substrate addition and measured after 20 mins by spectrophotometric analysis. The format is protein assay.
The nature of experiment [26]: Inhibition of alpha-glucosidase (unknown origin) using pNPG as substrate preincubated for 15 mins followed by substrate addition and measured after 30 mins by microplate reader based analysis. More on the design: species or system Homo sapiens.
A short description of experiment [27]: Inhibition of alpha-glucosidase (unknown origin) using p-NPG as substrate preincubated for 5 mins followed by substrate addition and measured after 30 mins by absorbance based analysis. Also noted: species or system Homo sapiens.
Experiment [28] in a line: Inhibition of alpha-glucosidase (unknown origin) using p-nitrophenyl glucopyranoside as substrate preincubated for 10 mins followed by substrate addition and measured after 30 mins by absorbance based analysis. Also noted: species or system Homo sapiens.

Each structure is given as a SMILES string.

What is called IC50 is the concentration that inhibits the measured activity by half. One may read the Ki as a dissociation constant, usually derived from enzyme kinetics or from competition with a known ligand. In turn, `Clc1ccc(C2=NOC(c3ccccc3)N2c2ccc(Cl)cc2)cc1` (centres undefined) registered an IC50 in [1] of 215 µM. Also, the Ki in experiment [2] is 122 µM. Turning to `O=c1cc(-c2ccc(OCc3cn(Cc4cc(Cl)ccc4Cl)nn3)cc2)oc2ccccc12`, in experiment [3], the IC50 was found to be 24.37 µM. The Ratio IC50 in experiment [4] came out at 35. For the molecule `CC(=O)Nc1ccc(-c2[nH]c3ccc(F)cc3c2-c2nc(-c3ccccc3)c(-c3ccccc3)n2-c2ccccc2)cc1`, the IC50 in [5] worked out at 8.37 µM.

`O=c1oc2ccccc2cc1-c1nn(-c2ccccc2)cc1-c1nc(-c2ccccc2)c(-c2ccccc2)[nH]1` gave an IC50 in experiment [6] of 2.78 µM. With `COc1cc2oc(=O)ccc2cc1-c1c(O)cc(O)c2c1O/C(=C\c1ccccc1)C2=O`, the IC50 in [7] was 3.55 µM. Turning to `Clc1ccc(-n2c(-c3cn(-c4ccccc4)nc3-c3ccc(Br)cc3)nc(-c3ccccc3)c2-c2ccccc2)cc1`, the IC50 in experiment [8] is 25.2 µM.

In [9], `CCOC(=O)CN1C(=O)S/C(=C/c2ccc(-n3ccc4c(Br)ccnc43)cc2)C1=O` had an IC50 of 0.55 µM.

The inhibition is how much of the control response was suppressed. In [10], `Oc1ccccc1-c1nn(CNN2CCOCC2)c(=S)o1` returned an inhibition of 82%. In experiment [11], this molecule yielded an IC50 of 43.1 µM. In turn, `O=C(COc1ccc(C(c2c(O)c3ccccc3oc2=O)c2c(O)c3ccccc3oc2=O)cc1)Nc1ccc(Br)cc1` came in with an IC50 in experiment [3] of 41.73 µM. For the same molecule, in [12], the Ki is 44 µM. Also, in experiment [4], the Ratio IC50 is 18. The molecule `O=c1oc2ccc(Br)cc2cc1-c1nn(-c2ccccc2)cc1-c1nc(-c2ccccc2)c(-c2ccccc2)n1-c1ccc(Cl)cc1` had an IC50 in experiment [6] of 2.53 µM. `COc1ccc(-c2[nH]c3c(c2CC#N)c(=O)oc2ccccc23)cc1` displayed an IC50 in experiment [13] of 48.6 µM. Also, the inhibition constant Ki in experiment [14] came to 48.6 µM.

With `O=C(N/N=C/c1ccc(O)c(O)c1)c1cc2ccccc2oc1=O`, the IC50 in [15] was determined as 1.1 µM. As for `O=c1c2ccccc2nc(SCc2cn(Cc3ccc(Br)cc3)nn2)n1CCc1ccccc1`, the IC50 in [16] and in experiment [17] was 181 µM throughout. As to `O=C1NC(=S)S/C1=C\c1ccc(Nc2nc3ccccc3o2)cc1`, in experiment [18], the IC50 was found to be 9.48 µM. Consider `COc1cc(-c2nc3ccccc3[nH]2)ccc1OCc1cn(CC(=O)Nc2cnc(-c3ccccc3)s2)nn1`, for which half-maximal inhibition in experiment [19] (IC50) required 6.31 µM. For `Cc1ccc2c(c1)/C(=N/Nc1nc(-c3ccc(O)cc3)cs1)C(=O)N2Cc1cccc(F)c1`, the IC50 in [20] is 5.36 µM. `NS(=O)(=O)c1ccc(Cc2nc(Cc3ccc(S(N)(=O)=O)cc3)nc(-c3cccc([N+](=O)[O-])c3)n2)cc1` returned an IC50 in experiment [21] of 41.7 µM. In addition, the Ki in [22] worked out at 41.7 µM. The molecule `CC(=O)c1c(-c2ccccc2)cn(CC(C)C)c1C` had an IC50 in experiment [23] of 0.77 µM. Consider `Cc1cc2nc(-c3ccc(C(=O)NNC(=S)Nc4ccc([N+](=O)[O-])cc4)cc3)[nH]c2cc1C`, for which the IC50 in experiment [24] worked out at 35.83 µM. Consider `COc1ccc2oc(=O)c3c(CC#N)c(-c4ccccc4)[nH]c3c2c1`, for which half-maximal inhibition in experiment [13] (IC50) required 48.6 µM. Besides, the Ki in [14] came out at 42.6 µM.

`CN1CCN(c2ccc3[nH]c(-c4ccc(O)cc4)nc3c2)CC1` gave an IC50 in [25] of 2.25 µM. Consider `Oc1ccc(/C=N\c2nnc(-c3ccc(O)cc3)o2)cc1`, for which, in [26], the IC50 stood at 0.3 µM. With `Oc1ccc(-c2nc3ncccc3[nH]2)cc1O`, the IC50 in [15] is 13.5 µM. Consider `O=c1oc2ccccc2cc1-c1nn(C(Nc2ccccc2Oc2ccccc2NC(c2cccc(Br)c2)n2nc(-c3cc4ccccc4oc3=O)oc2=O)c2cccc(Br)c2)c(=O)o1` (centres undefined), for which, in experiment [27], the IC50 was 0.07 µM. On to `FC(F)(F)c1cccc(-c2nnc(-c3c[nH]c4ncccc34)o2)c1`, for which, in experiment [28], the IC50 stood at 0.46 µM.
